Data published in patent US10375962B2, “Heterocycle derivatives as pesticides” (BAYER CROPSCIENCE AKTIENGESELLSCHAFT, priority 2016, dated 2019).
Where two headings read alike, the source gives them in different places.

Legend:
[1] = system: adult cat fleas (Ctenocephalides felis); assay: Ctenocephalides felis - in vitro contact tests with adult cat fleas; assay type: in vivo; conditions: application rate 5 μg/cm^2; after 48 h
Method: For the coating of the test tubes, 9 mg of active compound are first dissolved in 1 ml of acetone p.a. and then diluted to the desired concentration with acetone p.a. 250 μl of the solution are distributed homogeneously on the inner walls and the base of a 25 ml test tube by turning and rocking on an orbital shaker (rocking rotation at 30 rpm for 2 h). With 900 ppm of active compound solution and internal surface area 44.7 cm^2, given homogeneous distribution, an area-based dose of 5 μg/cm^2 is achieved.
After the solvent has evaporated off, the tubes are populated with 5-10 adult cat fleas (Ctenocephalides felis), sealed with a perforated plastic lid and incubated in a horizontal position at room temperature and ambient humidity. After 48 h, efficacy is determined. To this end, the test tubes are stood upright and the fleas are knocked to the base of the tube. Fleas which remain motionless at the base or move in an uncoordinated manner are considered to be dead or moribund.
100% efficacy means that all the fleas were dead or moribund. 0% efficacy means that no fleas were harmed.

[2] = system: unfed adult cat fleas (Ctenocephalides felis); assay: Ctenocephalides felis - oral test; assay type: in vivo; conditions: application rate 100 ppm in citrated cattle blood; after 2 days
Method: (§1) Solvent: dimethyl sulphoxide
For the purpose of production of a suitable active compound formulation, 10 mg of active compound are mixed with 0.5 ml of dimethyl sulphoxide. Dilution with citrated cattle blood gives the desired concentration.
About 20 unfed adult cat fleas (Ctenocephalides felis) are placed into a chamber which is closed at the top and bottom with gauze. A metal cylinder whose bottom end is closed with parafilm is placed onto the chamber. The cylinder contains the blood/active compound formulation, which can be imbibed by the fleas through the parafilm membrane.
After 2 days, the kill in % is determined. 100% means that all of the fleas have been killed; 0% means that none of the fleas have been killed.

[3] = system: green peach aphid (Myzus persicae); assay: Myzus persicae - spray test (Chinese cabbage leaf discs); assay type: in vivo; conditions: after 5 days
Method: Solvent: 78 parts by weight of acetone • • 1.5 parts by weight of dimethylformamide Emulsifier: alkylaryl polyglycol ether
(§2) To produce a suitable active compound formulation, 1 part by weight of active compound is dissolved with the stated parts by weight of solvent and made up with water containing an emulsifier concentration of 1000 ppm until the desired concentration is attained. To produce further test concentrations, the formulation is diluted with emulsifier-containing water.
Discs of Chinese cabbage leaves (Brassica pekinensis) infested by all stages of the green peach aphid (Myzus persicae) are sprayed with an active compound formulation of the desired concentration.
After 5 days, the efficacy in % is determined. 100% means that all the aphids have been killed and 0% means that none of the aphids have been killed.

[4] = log P by HPLC on a reversed-phase column (C 18), EEC Directive 79/831 Annex V.A8; assay type: physicochemical; conditions: for chromatographic logP: reversed-phase HPLC column (C 18)
From the text: Called log P (HCOOH) in the table.
Called log P (neutral) in the table.

[5] = system: caterpillars of the armyworm (Spodoptera frugiperda); assay: Spodoptera frugiperda - spray test; assay type: in vivo; conditions: maize leaf discs, after 7 days
Method: Solvent: 78.0 parts by weight of acetone • • 1.5 parts by weight of dimethylformamide Emulsifier: alkylaryl polyglycol ether […] To produce further test concentrations, the formulation is diluted with emulsifier-containing water. Leaf discs of maize (Zea mays) are sprayed with an active compound preparation of the desired concentration and, after drying, populated with caterpillars of the armyworm (Spodoptera frugiperda).

[6] = system: larvae of the mustard beetle (Phaedon cochleariae); assay: Phaedon cochleariae - spray test; assay type: in vivo; conditions: after 7 days
Method: (§3) Solvent: 78.0 parts by weight of acetone • • 1.5 parts by weight of dimethylformamide
(§4) Emulsifier: alkylaryl polyglycol ether
as §2
Discs of Chinese cabbage leaves (Brassica pekinensis) are sprayed with an active compound formulation of the desired concentration and, after drying, populated with larvae of the mustard beetle (Phaedon cochleariae).
After 7 days, the efficacy in % is determined. 100% means that all the beetle larvae have been killed and 0% means that none of the beetle larvae have been killed.

[7] = system: engorged adult female cattle ticks (Boophilus microplus); assay: Boophilus microplus - injection test; assay type: in vivo; conditions: application rate 20 μg/animal, after 7 days
Method: as §1
To produce a suitable active compound formulation, 10 mg of active compound are mixed with 0.5 ml of solvent and the concentrate is diluted with solvent to the desired concentration.
1 μl of the active compound solution is injected into the abdomen of 5 engorged adult female cattle ticks (Boophilus microplus). The animals are transferred into dishes and kept in a climate-controlled room.
Efficacy is assessed after 7 days by laying of fertile eggs. Eggs which are not visibly fertile are stored in a climate-controlled cabinet until the larvae hatch after about 42 days. An efficacy of 100% means that none of the ticks has laid any fertile eggs; 0% means that all the eggs are fertile.

[8] = system: green peach aphid (Myzus persicae); assay: Myzus persicae spray test (bell pepper plants); assay type: in vivo; conditions: application rate 20 ppm, after 6 days
Method: Solvent: 14 parts by weight of dimethylformamide
as §4
as §2, with “water. If the addition of ammonium salts or/and penetrants is required, these are each added in a concentration of 1000 ppm to the formulation solution.” for “water.”
Bell pepper plants (Capsicum annuum) severely infested with the green peach aphid (Myzus persicae) are treated by spraying with the active compound formulation in the desired concentration.
After 6 days, the kill in % is determined. 100% means that all of the aphids have been killed; 0% means that none of the aphids have been killed.

[9] = system: greenhouse red spider mite (Tetranychus urticae); assay: Tetranychus urticae - spray test, OP-resistant; assay type: in vivo; conditions: bean leaf discs, after 6 days
Method: as §3, §4, §2
Discs of bean leaves (Phaseolus vulgaris) infested with all stages of the greenhouse red spider mite (Tetranychus urticae) are sprayed with an active compound formulation of the desired concentration.
After 6 days, the efficacy in % is determined. 100% means that all the spider mites have been killed; 0% means that no spider mites have been killed.

[10] = system: L1 larvae of the Australian sheep blowfly (Lucilia cuprina); assay: Lucilia cuprina test; assay type: in vivo; conditions: application rate 100 ppm; after 2 days
Method: as §1
(§5) To produce a suitable active compound formulation, 10 mg of active compound are mixed with 0.5 ml of dimethyl sulphoxide, and the concentrate is diluted with water to the desired concentration.
About 20 L1 larvae of the Australian sheep blowfly (Lucilia cuprina) are transferred into a test vessel containing minced horsemeat and the active compound formulation of the desired concentration.
After 2 days, the kill in % is determined. 100% means that all the larvae have been killed; 0% means that no larvae have been killed.

[11] = system: adult houseflies (Musca domestica); assay: Musca domestica test; assay type: in vivo; conditions: application rate 100 ppm; after 2 days
Method: as §1, §5
Vessels containing a sponge treated with sugar solution and the active compound formulation of the desired concentration are populated with 10 adult houseflies (Musca domestica).
After 2 days, the kill in % is determined. 100% means that all of the flies have been killed; 0% means that none of the flies have been killed.

[12] = acidic range, pH 2.7, 0.1% aqueous formic acid/acetonitrile, 55° C.
[13] = neutral range, pH 7.8, 0.001 molar aqueous ammonium hydrogencarbonate/acetonitrile, 55° C.

CCS(=O)(=O)c1ccc(-n2cnc3ccccc32)nc1-c1nc2cc(C(F)(F)F)ncc2n1C [Example I-24]
efficacy (fleas dead or moribund) [1]: 100%
efficacy (kill) [2]: 95%
efficacy ([3]; application rate 100 g/ha): 100%
efficacy ([3]; application rate 500 g/ha): 90%
LOGP_HCOOH (log P (HCOOH)) ([4]; pH 2.7): 2.66
LOGP_NEUTRAL (log P (neutral)) ([4]; pH 7.8): 2.64
efficacy ([5]; application rate 100 g/ha): 83%
efficacy ([5]; application rate 500 g/ha): 100%
efficacy ([6]; application rate 500 g/ha): 83%

CCS(=O)(=O)c1ccc(-n2ncc3cnccc32)nc1-c1nc2cc(C(F)(F)F)ncc2n1C [Example I-11]
efficacy (laying of fertile eggs) [7]: 90%
LOGP_HCOOH (log P (HCOOH)) [4, 12]: 1.75
LOGP_NEUTRAL (log P (neutral)) [4, 13]: 2.47
efficacy ([6]; application rate 500 g/ha): 83%

CCS(=O)(=O)c1ccc(-n2cnc3nc(Cl)ccc32)nc1-c1nc2cc(C(F)(F)F)ncc2n1C [Example I-35]
efficacy (fleas dead or moribund) [1]: 100%
efficacy (kill) [2]: 95%
LOGP_NEUTRAL (log P (neutral)) ([4]; pH 7.8): 2.53
efficacy ([6]; application rate 100 g/ha): 83%
efficacy ([6]; application rate 500 g/ha): 100%

CCS(=O)(=O)c1ccc(-n2cnc3cc(Cl)ccc32)nc1-c1nc2cc(C(F)(F)F)ncc2n1C [Example I-17]
efficacy (kill) [2]: 100%
LOGP_HCOOH (log P (HCOOH)) ([4]; pH 2.7): 3.19
LOGP_NEUTRAL (log P (neutral)) ([4]; pH 7.8): 3.12
efficacy (kill) [8]: 90%
efficacy ([5]; application rate 100 g/ha): 100%
efficacy ([5]; application rate 500 g/ha): 100%
efficacy ([6]; application rate 100 g/ha): 100%
efficacy ([6]; application rate 500 g/ha): 100%

CCS(=O)(=O)c1ccc(-n2nc3ccccn3c2=O)nc1-c1nc2cc(C(F)(F)F)ncc2n1C [Example I-43]
efficacy ([3]; application rate 100 g/ha): 90%
efficacy ([9]; application rate 100 g/ha): 90%
LOGP_HCOOH (log P (HCOOH)) ([4]; pH 2.7): 2.26
LOGP_NEUTRAL (log P (neutral)) ([4]; pH 7.8): 2.31

CCS(=O)(=O)c1ccc(-n2nc3c(Cl)cc(C(F)(F)F)cn3c2=O)nc1-c1nc2cc(C(F)(F)F)ncc2n1C [Example I-32]
efficacy (kill) [2]: 100%
efficacy (kill) [10]: 100%
efficacy (kill) [11]: 100%
LOGP_NEUTRAL (log P (neutral)) ([4]; pH 7.8): 3.39
efficacy ([5]; application rate 100 g/ha): 83%
efficacy ([5]; application rate 500 g/ha): 100%
efficacy ([6]; application rate 100 g/ha): 100%
efficacy ([6]; application rate 500 g/ha): 100%

CCS(=O)(=O)c1ccc(N2Cc3ccccc3C2=O)nc1-c1nc2cc(C(F)(F)F)ncc2n1C [Example I-31]
efficacy (fleas dead or moribund) [1]: 100%
efficacy (kill) [10]: 100%
efficacy ([9]; application rate 500 g/ha): 90%
LOGP_HCOOH (log P (HCOOH)) [4, 12]: 3.32
LOGP_NEUTRAL (log P (neutral)) [4, 13]: 3.28
efficacy ([5]; application rate 100 g/ha): 100%
efficacy ([5]; application rate 500 g/ha): 100%
efficacy ([6]; application rate 100 g/ha): 100%
efficacy ([6]; application rate 500 g/ha): 100%

CCS(=O)(=O)c1ccc(-n2ncc3ccc(Cl)cc32)nc1-c1nc2cc(C(F)(F)F)ncc2n1C [Example I-2, 2-[6-(6-Chloroindazol-1-yl)-3-ethylsulphonyl-2-pyridyl]-3-methyl-6-(trifluoromethyl)imidazo[4,5-c]pyridine]
efficacy ([9]; application rate 500 g/ha): 70%
chromatographic logP ([4]; acidic range, pH 2.7, 0.1% aqueous formic acid/acetonitrile, 55° C., read-out: LOGP_HCOOH (log P (HCOOH))): 4.01
chromatographic logP ([4]; neutral range, pH 7.8, 0.001 molar aqueous ammonium hydrogencarbonate/acetonitrile, 55° C., read-out: LOGP_NEUTRAL (log P (neutral))): 3.92

CCS(=O)(=O)c1ccc(-c2ccc3nn(C)cc3c2)nc1-c1nc2cc(C(F)(F)F)ncc2n1C [Example I-15]
efficacy (kill) [10]: 100%
efficacy ([9]; application rate 500 g/ha): 90%
LOGP_HCOOH (log P (HCOOH)) ([4]; pH 2.7): 2.62
LOGP_NEUTRAL (log P (neutral)) ([4]; pH 7.8): 2.58
efficacy ([5]; application rate 500 g/ha): 100%
efficacy ([6]; application rate 100 g/ha): 100%
efficacy ([6]; application rate 500 g/ha): 100%

CCS(=O)(=O)c1ccc(-n2nnc3ccccc32)nc1-c1nc2cc(C(F)(F)F)ncc2n1C [Example I-39]
efficacy ([9]; application rate 100 g/ha): 70%
LOGP_NEUTRAL (log P (neutral)) ([4]; pH 7.8): 3.21

CCS(=O)(=O)c1ccc(N2Cc3ccc(Cl)cc3C2=O)nc1-c1nc2cc(C(F)(F)F)ncc2n1C [Example I-34]
efficacy (fleas dead or moribund) [1]: 100%
efficacy (kill) [2]: 95%
efficacy (kill) [10]: 100%
LOGP_HCOOH (log P (HCOOH)) ([4]; pH 2.7): 3.83
LOGP_NEUTRAL (log P (neutral)) ([4]; pH 7.8): 3.79
efficacy (kill) [8]: 100%
efficacy ([5]; application rate 100 g/ha): 100%
efficacy ([5]; application rate 500 g/ha): 100%
efficacy ([6]; application rate 100 g/ha): 100%
efficacy ([6]; application rate 500 g/ha): 100%

CCS(=O)(=O)c1ccc(N2Cc3ccccc3C2)nc1-c1nc2cc(C(F)(F)F)ncc2n1C [Example I-21]
efficacy (fleas dead or moribund) [1]: 80%
efficacy (kill) [2]: 90%
efficacy (kill) [10]: 100%
LOGP_HCOOH (log P (HCOOH)) ([4]; pH 2.7): 3.59
LOGP_NEUTRAL (log P (neutral)) ([4]; pH 7.8): 3.63
efficacy (kill) [8]: 100%
efficacy ([5]; application rate 100 g/ha): 100%
efficacy ([5]; application rate 500 g/ha): 100%
efficacy ([6]; application rate 500 g/ha): 83%

CCS(=O)(=O)c1ccc(-n2cc3cccc(Cl)c3n2)nc1-c1nc2cc(C(F)(F)F)ncc2n1C [Example I-5]
efficacy (kill) [10]: 100%
efficacy ([3]; application rate 100 g/ha): 70%
efficacy ([3]; application rate 500 g/ha): 90%
efficacy (laying of fertile eggs) [7]: 80%
LOGP_HCOOH (log P (HCOOH)) [4, 12]: 3.94
LOGP_NEUTRAL (log P (neutral)) [4, 13]: 3.92
efficacy ([5]; application rate 100 g/ha): 100%
efficacy ([5]; application rate 500 g/ha): 100%
efficacy ([6]; application rate 500 g/ha): 100%

CCS(=O)(=O)c1ccc(N2Cc3cccnc3C2)nc1-c1nc2cc(C(F)(F)F)ncc2n1C [Example I-22]
efficacy (fleas dead or moribund) [1]: 100%
efficacy (kill) [2]: 100%
efficacy (kill) [10]: 100%
LOGP_HCOOH (log P (HCOOH)) [4, 12]: 2.44
LOGP_NEUTRAL (log P (neutral)) [4, 13]: 2.46
efficacy (kill) [8]: 99%
efficacy ([5]; application rate 100 g/ha): 100%
efficacy ([5]; application rate 500 g/ha): 100%
efficacy ([6]; application rate 100 g/ha): 100%
efficacy ([6]; application rate 500 g/ha): 100%
